Test results from patent publication US7148231B2, “[6,7-Bis(2-methoxy-ethoxy)-quinazolin-4-yl]-(3-ethynyl-phenyl)amine hydrochloride polymorph” (Hoffmann-La Roche Inc., priority 2003, dated 2006).
Where two headings read alike, the source gives them in different places.

Tests used:
[1] = polymorphs described in WO 01/34574; cited from earlier work
[2] = polymorphs described in WO 01/34574; cited from earlier work; remark: listed apart in the source
[3] = Solubility after 20 min equilibration at 20° C.; assay type: physicochemical; conditions: hydrochloride; for solubility in aqueous buffer (pH 1): aqueous buffer solution pH 1, 20 min equilibration at 20° C.; for solubility in water: 20 min equilibration at 20° C.
Procedure: The solubility of polymorphs A, B, and E measured after 20 min equilibration at 20° C. in either water or aqueous buffer solution (pH 1) are compiled the following table.: […]

[4] = Thermodynamic stability (melting point, heat of solution, equilibration experiments in suspension); assay type: physicochemical; conditions: comparison of polymorphs E, A and B; hydrochloride
Procedure: The thermodynamic stability of the individual crystalline polymorphs E, A and B of [6,7-Bis(2-methoxy-ethoxy)-quinazolin-4-yl]-(3-ethynyl-phenyl)amine hydrochloride were measured according to methods known in the art, e.g., from Byrn (Byrn, S. R., Pfeiffer, R. R., Stowell, J. G., “Solid-State Chemistry of Drugs”, SSCI Inc., West Lafayette, Ind., 1999).

[5] = polymorphs described in WO 01/34574; cited from earlier work; remark: listed apart in the source
Dissolution rate = assay type: physicochemical; conditions: compared with polymorph B

SMILES | solubility [1] | dissolution rate [2] | solubility in aqueous buffer (pH 1) [3] | solubility in water [3] | thermodynamic stability [4] | thermodynamic stability [5] | dissolution rate (Dissolution rate)
C#Cc1cccc(Nc2ncnc3cc(OCCOC)c(OCCOC)cc23)c1.Cl [polymorph A, [6,7-Bis(2-methoxy-ethoxy)-quinazolin-4-yl]-(3-ethynyl-phenyl)amine hydrochloride] | better solubility and dissolution rate than polymorph B | better solubility and dissolution rate than polymorph B | 0.017% | 0.194% |  |  | 
C#Cc1cccc(Nc2ncnc3cc(OCCOC)c(OCCOC)cc23)c1.Cl [polymorph B, [6,7-Bis(2-methoxy-ethoxy)-quinazolin-4-yl]-(3-ethynyl-phenyl)amine hydrochloride] |  |  | 0.003% | 0.098% | more stable than polymorphs E and A | thermodynamically more stable than polymorph A | 
C#Cc1cccc(Nc2ncnc3cc(OCCOC)c(OCCOC)cc23)c1.Cl [polymorph E, [6,7-Bis(2-methoxy-ethoxy)-quinazolin-4-yl]-(3-ethynyl-phenyl)amine hydrochloride] |  |  | 0.011% | 0.191% | thermodynamically more stable than polymorph A |  | better solubility and dissolution rate than the known polymorph B
